Experimental findings from the OPERA property sets (Mansouri et al. 2018) are described below.

Settings in one data set: not given
In turn, `CC(=O)Oc1ccc(OC(C)=O)c(-c2ccccc2)c1` returned a melting point of 68 °C.

Turning to `CCC(CC)(CC)C(C)C`, the boiling point is 172 °C.

Compound `O=[N+]([O-])c1ccc2c(c1)NCC2` had a melting point of 68 °C.

Turning to `CC1=C(C)CCCC1`, the boiling point turned out to be 138 °C and the melting point is -84.1 °C.

`CN(C)c1ccc(C(=O)O)cc1` had a melting point of 242 °C.

Turning to `COC(=O)N(C(=O)N1COC2(C(=O)OC)Cc3cc(Cl)ccc3C2=N1)c1ccc(OC(F)(F)F)cc1` (centres undefined), the melting point was 140 °C.

As for `CC(CBr)c1ccccc1` (centres undefined), the boiling point came out at 188 °C and the melting point is -59.3 °C.

`CCN(CCO)CCn1c(Cc2ccccc2)nc2c1c(=O)n(C)c(=O)n2C` had a melting point of 80 °C.

For the compound `C1CCCOCC1`, the boiling point was found to be 119 °C.

`COc1ccc(C)c(C)c1` yielded a boiling point of 202 °C.

With `CCCCCCC(C)OC(=O)COc1nc(F)c(Cl)c(N)c1Cl` (centres undefined), the log10 vapour pressure (mmHg) is -8 and the melting point is 59 °C.

`CCCCC1(CC)C(=O)NC(=O)NC1=O`: the melting point stood at 128 °C.

In turn, `O=C(O)c1ccccc1SSc1ccccc1C(=O)O` displayed a melting point of 288 °C.

As for `O=C(O)C(F)(F)F`, the boiling point was 73 °C, the log10 Henry constant (atm·m³/mol) was -6.95, the log10 vapour pressure (mmHg) was 2.04 and the melting point was -15.2 °C.

`CN(C)CCCN(C)C` had a boiling point of 144 °C.

Consider `Oc1cccc(O)c1`, for which the boiling point was 280 °C, the log10 Koc (L/kg) was found to be 0.98, the log10 vapour pressure (mmHg) is -3.31 and the melting point came out at 111 °C. Besides, the ready biodegradability result is on record as “readily biodegradable”.

`O=[N+]([O-])c1ccc(N=Nc2ccccc2)cc1`: the log10 vapour pressure (mmHg) is -5.93 and the melting point came to 133 °C.

In the case of `Cc1c2ccccc2cc2ccccc12`, the log10 Koc (L/kg) worked out at 4.81, the log10 biodegradation half-life (days) was determined as 2.42, the log10 vapour pressure (mmHg) is -4.4 and the melting point is 81.5 °C.

In turn, `CN1CCOCC1` gave a boiling point of 116 °C.

Turning to `O=C(Nc1ccc(F)cc1F)c1cccnc1Oc1cccc(C(F)(F)F)c1`, the log10 Henry constant (atm·m³/mol) is -6.49, the log10 vapour pressure (mmHg) was -7.5 and the melting point was found to be 160 °C.

`Oc1ccc(F)c(F)c1F` registered a melting point of 32 °C.

As for `Clc1ccccc1`, the boiling point turned out to be 132 °C, the log10 Henry constant (atm·m³/mol) was -2.51, the log10 Koa came out at 3.31 and the log10 Koc (L/kg) is 2.15. In addition, the log10 vapour pressure (mmHg) turned out to be 1.08, the melting point is -45.2 °C and the ready biodegradability result is on record as “not readily biodegradable”.

Take `CCc1ccncc1`: the boiling point is 168 °C, the log10 Henry constant (atm·m³/mol) is -5.07, the log10 vapour pressure (mmHg) was 0.355 and the melting point is -90.5 °C.

`NCCCO`: the boiling point amounted to 188 °C, the log10 vapour pressure (mmHg) is -1.11 and the melting point came to 11 °C.

On to `C=C(C)C(=O)OCC`, for which the boiling point was 117 °C and the log10 vapour pressure (mmHg) came out at 1.31.

The compound `OCCN(CCO)c1ccccc1` returned a melting point of 57 °C.

`Cc1cc(C)c2cc(C)ccc2c1` came in with a melting point of 12 °C.

`C#CCCO`: the boiling point came to 129 °C and the melting point is -63.6 °C.

`O=C1OC(=O)c2c(F)c(F)c(F)c(F)c21`: the melting point came to 95 °C.

In the case of `c1ccc(-c2cc3ccccc3[nH]2)cc1`, the melting point amounted to 190 °C and the ready biodegradability entry is listed as “not readily biodegradable”.

For `FC(F)(F)c1ccc(Cl)c(Cl)c1`, the boiling point is 174 °C, the log10 vapour pressure (mmHg) is 0.372 and the melting point was -12.5 °C.

In the case of `C=CCNC(N)=S`, the melting point stood at 78 °C.

In the case of `N#CC(Cl)(Cl)Cl`, the boiling point was 85.7 °C, the log10 vapour pressure (mmHg) was 1.87 and the melting point was -42 °C.

`O=C1CCC(=O)N1I`: the melting point was 204 °C.

Regarding `CC1(C)CCCc2ccccc21`, the boiling point stood at 221 °C.

Compound `Cc1ccccc1N=Nc1c(N)ccc2ccccc12` showed a melting point of 126 °C.

The compound `CCOc1ccc(NC(=O)CN)cc1` registered a melting point of 100 °C.

Compound `c1ccc2c(c1)Cc1ccccc1C2` came in with a boiling point of 305 °C and a melting point of 111 °C.

Turning to `Cc1ccc(C(C)C)c(O)c1`, the boiling point was 232 °C, the log10 vapour pressure (mmHg) was -2.66, the melting point amounted to 51.5 °C and the ready biodegradability result is “not readily biodegradable”.

With `O=P(O)(O)CN(CP(=O)(O)O)CP(=O)(O)O`, the boiling point turned out to be 480 °C and the log10 vapour pressure (mmHg) was -11.2.

In the case of `CCCCOc1ccc(C(=O)OCCN(CC)CC)cc1`, the melting point is 146 °C.

In the case of `Cc1ccc2cccc(C)c2n1`, the boiling point came to 255 °C and the melting point was determined as 27 °C.

Regarding `CC(=O)NCCO`, the melting point was found to be 16 °C.

For the compound `O=Cc1ccc2ccccc2c1`, the melting point turned out to be 62 °C.

For `CC(C)(C)c1ccc(C(O)CCCN2CCC(C(O)(c3ccccc3)c3ccccc3)CC2)cc1` (centres undefined), the melting point worked out at 147 °C.

The same data set, now with this note: fish.
In the case of `Clc1ccc2c(oc3c(Cl)c(Cl)c(Cl)c(Cl)c32)c1Cl`, the log10 BCF is 2.78 and the log10 biotransformation half-life (days) came to 0.43.

`O=C1C2CC=CCC2C(=O)N1SC(Cl)(Cl)Cl` (centres undefined) returned a log10 BCF of 1.98.

With `CCCCCCC(C)OC(=O)COc1nc(F)c(Cl)c(N)c1Cl` (centres undefined), the log10 biotransformation half-life (days) is -0.61.

`Cc1c2ccccc2cc2ccccc12` registered a log10 biotransformation half-life (days) of 0.23.

Consider `Clc1ccccc1`, for which the log10 BCF is 1.25 and the log10 biotransformation half-life (days) was -1.02.

Consider `FC(F)(F)c1ccc(Cl)c(Cl)c1`, for which the log10 BCF was found to be 3.18 and the log10 biotransformation half-life (days) turned out to be 1.52.
